Reference: the CombiSolv-Exp solvation set (Vermeire and Green 2021)

Test: solvent given as SMILES

CCc1ccccc1
Details	solvation free energy, 298 K [kcal/mol]
in C1CCOC1	-6.03
in C1COCCO1	-5.7
in C=CCCCCCCCCCCCCCC	-5.07
in CC#N	-5.19
in CC(=O)N(C)C	-5.46
in CC(C)(C)O	-4.99
in CC(C)CC(C)(C)C	-5.3
in CC(C)CO	-4.95
in CC(C)O	-4.88
in CC(O)CO	-4.1
in CCC#N	-5.78
in CCC(C)=O	-5.62
in CCCC#N	-5.6
in CCCCC(CC)COC(=O)CCCCC(=O)OCC(CC)CCCC	-5.37
in CCCCCC	-5.35
in CCCCCCC	-5.36
in CCCCCCCCCC	-5.23
in CCCCCCCCCCCCCCCC	-5.16
in CCCCCCCCO	-5.05
in CCCCN(C=O)CCCC	-5.44
in CCCCOC(=O)c1ccccc1C(=O)OCCCC	-5.38
in CCCO	-4.93
in CCO	-4.83
in CCOC(=O)c1ccccc1C(=O)OCC	-5.23
in CN(C)C=O	-5.41
in CNC(C)=O	-5.05
in CNC=O	-4.82
in CO	-4.86
in COCCO	-5.05
in Clc1ccccc1	-5.84
in NC=O	-3.26
in O	-0.72
in O=CN1CCOCC1	-5.01
in O=Cc1ccco1	-5.04
in OCCCCCO	-4.4
in OCCCCO	-4.2
in OCCCO	-3.91
in OCCO	-3.36
in OCCOCCO	-4.15
in OCCOCCOCCO	-4.31
in OCCOCCOCCOCCO	-4.38

CC(C)(C)OC(=O)c1ccccc1C(=O)OC(C)(C)C
Details	solvation free energy, 298 K [kcal/mol]
in O	-7.09

CCOCCOC
Details	solvation free energy, 298 K [kcal/mol]
in ClC(Cl)(Cl)Cl	-5.85

CCCCl
Details	solvation free energy, 298 K [kcal/mol]
in Brc1cccc2ccccc12	-3.29
in C1CCOC1	-3.88
in C1CCOCC1	-3.79
in C=CCCCCCCCCCCCCCC	-3.01
in CC(=O)OCc1ccccc1	-3.4
in CC(C)CC(C)(C)C	-3.2
in CCC(C)=O	-3.68
in CCCCCC	-3.37
in CCCCCCC	-3.27
in CCCCCCCC	-3.22
in CCCCCCCCC=CCCCCCCCC(=O)OCC(COC(=O)CCCCCCCC=CCCCCCCCC)OC(=O)CCCCCCCC=CCCCCCCCC	-3.25
in CCCCCCCCCCCCCCCC	-3.01
in CCCCCCCCO	-3.06
in CCCCCl	-3.68
in CCCCO	-3.16
in CCOC(C)=O	-3.68
in Cc1ccc(C)cc1	-3.58
in ClC(Cl)(Cl)Cl	-3.7
in ClC(Cl)Cl	-3.62
in ClCCCl	-3.7
in O	-0.37
in O=C1CCCCC1	-3.67
in [2H]O[2H]	-0.74
in c1ccc2ncccc2c1	-3.35

CC(=O)OC1CC(C)CCC1C(C)C (stereo not given)
Details	solvation free energy, 298 K [kcal/mol]
in O	-2.59

CCCCCCCCCCCCOC(=O)c1ccccc1C(=O)OCCCCCCCCCCCC
Details	solvation free energy, 298 K [kcal/mol]
in O	-5.92

Nc1ccc(C(=O)O)cc1
Details	solvation free energy, 298 K [kcal/mol]
in C1COCCO1	-14.6
in CC(C)CCO	-13.7
in CC(C)CO	-13.8
in CC(C)O	-14.2
in CCC(C)O	-14
in CCCC(C)O	-13.9
in CCCCCCCCCCO	-13.3
in CCCCCCCCO	-13.5
in CCCCCCCO	-13.7
in CCCCCCO	-13.8
in CCCCCO	-13.9
in CCCCO	-14.1
in CCCO	-14.3
in CCO	-14.6
in CCOCC	-13.6

ClC1CCCCC1
Details	solvation free energy, 298 K [kcal/mol]
in O	-0.93

ClCCCCl
Details	solvation free energy, 298 K [kcal/mol]
in CC(C)=O	-5.63
in CCCCCC	-4.43
in ClC(Cl)(Cl)Cl	-5.2
in O	-1.89

CCC(C)(C)OC
Details	solvation free energy, 298 K [kcal/mol]
in CC(=O)N(C)C	-3.92
in CC(C)(C)O	-4.22
in CC(C)CC(C)(C)C	-4.24
in CCCCCC	-4.47
in CCCCCCC	-4.24
in CCCCCCCCCC	-4.16
in CCCCCCCCO	-4.07
in CCCCN(C=O)CCCC	-4.11
in CCN1CCCC1=O	-3.85
in CCN(CC)C(C)=O	-4.04
in CCNC(C)=O	-3.86
in CCNC=O	-3.79
in CN1CCCCC1=O	-3.86
in CN(C)C=O	-3.78
in CNC(C)=O	-3.75
in CNC=O	-3.62
in CO	-4.26
in O	-1.77

N#Cc1cccnc1
Details	solvation free energy, 298 K [kcal/mol]
in O	-6.75

CCC(CC)CC
Details	solvation free energy, 298 K [kcal/mol]
in C=CCCCCCCCCCCCCCC	-4.07
in CC#N	-3.02
in O	2.61

CCC(C)C(=O)OC1CC(C)C=C2C=CC(C)C(CCC3CC(O)CC(=O)O3)C21 (stereo not given)
Details	solvation free energy, 298 K [kcal/mol]
in CC(=O)OC(C)C	-24.9
in CC(=O)OCC(C)C	-24.8
in CC(C)=O	-25.7
in CCC(C)=O	-25.6
in CCC(C)OC(C)=O	-24.9
in CCCCCCCCO	-24.6
in CCCCCCO	-24.8
in CCCCCO	-24.9
in CCCCO	-25.2
in CCCCOC(C)=O	-24.9
in CCCO	-25.2
in CCCOC(C)=O	-25.1
in CCO	-25.1
in CCOC(C)=O	-25.1
in CO	-25.2
in COC(C)=O	-25.1

O=C(O)c1cccc2ccccc12
Details	solvation free energy, 298 K [kcal/mol]
in C=CCCCCCCC=C	-9.51
in C=CCCCCCCCCCCCCCC	-9.45
in O	-9.04
